From BindingDB's records for doi:10.1021/jm020572p (University of North Carolina at Chapel Hill, 2003)

Columns and labels:
[1] = molecular target: T1, Muscarinic acetylcholine receptor M5 (Homo sapiens, UniProt P08912); assay: Binding affinity of compound was determined towards human Muscarinic acetylcholine receptor M5 using [3H]QNB radioligand
T1 sequence (P08912 whole entry): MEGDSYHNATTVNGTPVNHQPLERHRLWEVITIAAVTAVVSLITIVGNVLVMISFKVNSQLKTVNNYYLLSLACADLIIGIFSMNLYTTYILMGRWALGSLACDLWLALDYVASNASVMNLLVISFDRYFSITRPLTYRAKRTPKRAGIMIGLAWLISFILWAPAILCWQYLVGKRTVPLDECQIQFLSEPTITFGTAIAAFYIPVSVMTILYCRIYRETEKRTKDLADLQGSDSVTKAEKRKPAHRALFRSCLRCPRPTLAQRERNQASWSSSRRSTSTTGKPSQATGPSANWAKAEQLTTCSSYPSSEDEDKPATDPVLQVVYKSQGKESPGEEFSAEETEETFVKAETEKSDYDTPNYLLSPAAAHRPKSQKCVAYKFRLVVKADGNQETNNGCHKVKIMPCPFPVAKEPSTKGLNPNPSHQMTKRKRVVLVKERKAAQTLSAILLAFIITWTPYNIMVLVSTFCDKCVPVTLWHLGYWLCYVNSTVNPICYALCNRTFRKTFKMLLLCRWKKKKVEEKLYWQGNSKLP

[2] = molecular target: T2, Muscarinic acetylcholine receptor M2 (Homo sapiens, UniProt P08172); assay: Binding affinity of compound was determined towards human Muscarinic acetylcholine receptor M2 using [3H]QNB radioligand
T2 sequence (P08172 whole entry): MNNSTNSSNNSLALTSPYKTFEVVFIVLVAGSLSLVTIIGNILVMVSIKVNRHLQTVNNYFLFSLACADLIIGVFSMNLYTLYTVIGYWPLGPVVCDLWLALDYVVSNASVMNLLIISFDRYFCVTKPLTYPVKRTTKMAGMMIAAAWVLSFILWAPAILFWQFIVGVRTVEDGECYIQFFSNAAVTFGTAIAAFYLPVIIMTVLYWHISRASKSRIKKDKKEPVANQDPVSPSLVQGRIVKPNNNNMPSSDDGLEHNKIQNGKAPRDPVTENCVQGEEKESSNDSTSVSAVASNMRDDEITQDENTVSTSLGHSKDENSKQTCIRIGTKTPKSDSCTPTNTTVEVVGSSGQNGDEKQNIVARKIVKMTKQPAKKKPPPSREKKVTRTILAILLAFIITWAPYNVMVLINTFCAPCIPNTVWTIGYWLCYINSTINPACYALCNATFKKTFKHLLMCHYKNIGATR

- Ki [1]: 560 nM
- Ki [2]: 80 nM
Structure (SMILES): CCOC(=O)C1CN2CC(CCC2COCc2ccccc2)C1=O (stereo not drawn) [exo-8-Benzyloxymethyl-4-hydroxy-1-aza-bicyclo[3.3.1]non-3-ene-3-carboxylic acid ethyl ester]
